# Assay results reported in patent publication US20100190755A1, “TETRACYCLINE COMPOUNDS FOR THE TREATMENT OF RHEUMATOID ARTHRITIS AND RELATED METHODS OF TREATMENT” (priority 2008, published 2010).
# Experiments:
# [1] = system: collagen-induced arthritis (CIA) in male DBA/1 mice; assay: CIA model, Example 3 (cumulative scores vs untreated controls); format: in vivo; settings: Mus musculus
# Summary of the method: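 Immunised intradermally with bovine type II collagen in CFA and boosted at day 21 in IFA. After onset, tetracycline derivatives given daily i.p. or orally for 8 to 15 days. Daily visual inflammation scores (0–4 scale) and micrometer paw thickness summed into cumulative scores.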
# IL-6 = assay: Paw extract biomarker ELISA, CIA mice: IL-6; format: in vivo, mouse; settings: paw extracts from CIA mice
# Experimental: (§1) • 1. Male DBA/1 mice were immunized i.d. with an emulsion of 200 μg bovine type II collagen in Complete Freund's Adjuvant. • 2. On day 21, mice received i.d. boost of 100 μg collagen in Incomplete Freund's Adjuvant • 3. Compounds were administered i.p. daily for 7 days starting from disease onset (day 3-4 after boost). • 4. Foot swelling was measured by an engineering micrometer and disease severity was scored accordingly (1, erythema and mild swelling confined to the tarsal or ankle joint; 2, erythema and mild swelling extending from the ankle to the mid-foot; 3, erythema and moderate swelling extending from the ankle to the metatarsal joints; 4, erythema and severe swelling encompassing the ankle, foot, and digits). • 5. Change (Δ) of paw thickness=sum of paw thickness from 4 paws of a mouse (experimental)−sum of baseline paw thickness from 4 paws of the same mouse. • 6. % inhibition=cumulative A paw thickness (disease group−compound-treated group)/cumulative A paw thickness (disease group)
# (§2) • 1. Paws were collected from mice after 5-7 days of dosing and dissected free of skin. • 2. The paws were then homogenized in ice-cold PBS (2 ml/4 paws/mouse) containing 1× protease inhibitor using a Polytron homogenizer. • 3. Debris and particles were removed from the homogenized samples by centrifugation. • 4. Liquid layers were collected for MMP-9, IL-1, IL-6, RANKL, MCP-1, and TNFα analysis using ELISA kits from R & D System.
# [2] = Pharmacokinetics in rats after i.v. and oral dosing; format: in vivo; settings: rat; for bioavailability: male, CD/IGS, after oral dosing of 5 mg/kg, read-out: PK Parameters (Rat) % F, fraction of absorption; for bioavailability / half-life: plasma; for half-life: male CD/IGS rats, 1 mg/kg i.v. or 5 mg/kg oral, read-out: PK Parameters (Rat) T1/2 (converted)
# Experimental: Pre-cannulated (jugular vein and carotid artery for i.v. group and carotid artery for oral group) male CD/IGS rats (approximately 250 g) were used. Rats were fasted overnight prior to dosing with access to food restored 2 hours after dosing. Rats were administered with approximately 0.25 mL compound (1 mg/kg dose) for i.v. route (via jugular vein over 20 seconds) or 0.5 mL solution (5 mg/kg dose) orally. Blood (300 μL) was collected in tubes with EDTA anticoagulant at various time points, centrifuged and plasma collected and stored frozen at −20° C. Animals were euthanized by CO2 following the final blood collection. Plasma was extracted (0.1% trifluoroacetic acid in 67% acetonitrile/33% water) and levels of compound quantified by HPLC/MS against a standard curve.
# [3] = system: Protein synthesis (E. coli S30 Extract System); assay: Protein synthesis inhibition, in vitro transcription/translation assay (E. coli S30 Extract System for Circular DNA); format: biochemical
# E. coli 25922 = assay: Antibacterial activity MIC, Gram- (Table 9); format: cell-based; settings: Escherichia coli, CAMHB, 35° C., approximately 18 hr
# Summary of the method: (§3)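 MIC taken as lowest compound level preventing growth after about 18 h at 35 °C (ambient air), read by microplate reader with visual check. Fresh log-phase cultures were inoculated to about 5×10^5 CFU/ml final into CAMHB dilutions spanning 200 to 0.098 μg/ml, starting from a DMSO stock.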
# RANKL = assay: Paw extract biomarker ELISA, CIA mice: RANKL; format: in vivo, mouse; settings: paw extracts from CIA mice
# Experimental: as §1, §2
# IL-1 = assay: Paw extract biomarker ELISA, CIA mice: IL-1; format: in vivo, mouse; settings: paw extracts from CIA mice
# Experimental: as §1, §2
# MCP-1 = assay: Paw extract biomarker ELISA, CIA mice: MCP-1; format: in vivo, mouse; settings: paw extracts from CIA mice
# Experimental: as §1, §2
# [4] = system: cytokines (IL-1, IL-6, RANKL and MCP-1) and a matrix metalloproteinase (MMP-9); assay: Paw extract biomarker ELISA, CIA mice: whole panel (statements in words); format: in vivo, mouse
# Experimental: as §1, §2
# S. aureus RN450 = assay: Antibacterial activity MIC, Gram+ (Table 9); format: cell-based; settings: Staphylococcus aureus, CAMHB, 35° C., approximately 18 hr
# Summary of the method: as §3
# MMP-9 = assay: Paw extract biomarker ELISA, CIA mice: MMP-9; format: in vivo, mouse; settings: paw extracts from CIA mice
# Experimental: as §1, §2
# [5] = system: collagen-induced arthritis (CIA) in male DBA/1 mice; assay: Murine collagen-induced arthritis (CIA) model, Example 2; format: in vivo, mouse; settings: for % Inhibition (Change in Paw Thickness) AVG / % Inhibition (Clinical Score) AVG / Change in Paw Thickness (mm) Mean: 25 mg/kg/day i.p.; for % Inhibition (Change in Paw Thickness) AVG / % Inhibition (Clinical Score) AVG: dosed after disease onset; for EC50 in inflammation suppression in CIA mice: i.p. daily; for Effects on reduction of paw swelling and clinical score compared to either minocycline or methotrexate / joint inflammation when administered after disease onset: murine CIA model
# Experimental: Four non-antibacterial analogues of minocycline (J, W, AF and AT) were synthesized and tested in the murine model of the disease, collagen-induced arthritis (CIA) (See supra). Male DBA/1 mice were immunized intradermally with 200 μg of bovine type II collagen and boosted with collagen three weeks later. Minocycline and four non-antibacterial minocycline derivatives were administered i.p. beginning after disease onset. Paw thickness was measured and animals were scored daily.
# as §1
# [6] = system: E. coli ATCC25922 (tetracycline sensitive); assay: E. coli MIC, broth micro-dilution per CLSI guidelines (Table 3); format: cell-based; settings: for MIC: Escherichia coli, E. coli ATCC25922, cation-adjusted Mueller Hinton broth
Compound,inhibition in vivo at 12 mg/kg [1],"Percent level of Biomarker Tissue [c] Compared to Untreated Control, IL-6 AVG (IL-6)",bioavailability [2],bio-available after oral dosing in rats [2],half-life [2],IC50 [3],MIC (E. coli 25922),"Percent level of Biomarker Tissue [c] Compared to Untreated Control, RANKL AVG (RANKL)","Percent level of Biomarker Tissue [c] Compared to Untreated Control, IL-1 AVG (IL-1)","Percent level of Biomarker Tissue [c] Compared to Untreated Control, MCP-1 AVG (MCP-1)","inhibition of inflammatory/osteoclastic cytokines (MMP-9, IL-1, IL-6, MCP-1, RANKL) in vivo [4]",MIC (S. aureus RN450),"Percent level of Biomarker Tissue [c] Compared to Untreated Control, MMP-9 AVG (MMP-9)",% Inhibition (Change in Paw Thickness) AVG [5],% Inhibition (Clinical Score) AVG [5],EC50 in inflammation suppression in CIA mice [5],Change in Paw Thickness (mm) Mean ([5]; day 1 of dosing),Change in Paw Thickness (mm) Mean ([5]; day 2 of dosing),Change in Paw Thickness (mm) Mean ([5]; day 3 of dosing),Change in Paw Thickness (mm) Mean ([5]; day 4 of dosing),further results
CCc1cc(N(C)C)c2c(c1O)C(=O)C1=C(O)[C@]3(O)C(=O)C(C(N)=O)=C(O)C[C@@H]3C[C@@H]1C2 [Compound AF],49%,35%,77%,bio-available,3.1 h,> 100 µM,> 64 µg/mL,38%,55%,43%,better than minocycline,1 µg/mL,113%,62%,42%,12 mg/kg/day i.p.,0.55 mm,0.39 mm,0.61 mm,0.49 mm,inhibition in vivo at 6 mg/kg [1]: 28%; inhibition in vivo at 35 mg/kg ([1]; Dose 35 mg/kg): 62%; Change in Paw Thickness (mm) Mean ([5]; day 5 of dosing): 0.46 mm; Change in Paw Thickness (mm) Mean ([5]; day 6 of dosing): 0.38 mm; Change in Paw Thickness (mm) Mean ([5]; day 7 of dosing): 0.42 mm; Change in Paw Thickness (mm) Mean ([5]; day 8 of dosing): 0.54 mm; Effects on reduction of paw swelling and clinical score compared to either minocycline or methotrexate [5]: greater; joint inflammation when administered after disease onset [5]: inhibited joint inflammation; anti-bacterial activity compared to minocycline [6]: no anti-bacterial activity; MIC [6]: > 64 µg/mL
CC(C)c1cc(N(C)C)c2c(c1O)C(=O)C1=C(O)[C@]3(O)C(=O)C(C(N)=O)=C(O)[C@@H](N(C)C)[C@@H]3C[C@@H]1C2 [Compound J],34%,68%,65%,bio-available,2.5 h,> 100 µM,> 64 µg/mL,32%,52%,60%,better than minocycline,2 µg/mL,68%,71%,45%,14 mg/kg/day i.p.,0.47 mm,0.39 mm,0.33 mm,0.48 mm,inhibition in vivo at 25 mg/kg [1]: 71%; Change in Paw Thickness (mm) Mean ([5]; day 5 of dosing): 0.36 mm; Change in Paw Thickness (mm) Mean ([5]; day 6 of dosing): 0.37 mm; Change in Paw Thickness (mm) Mean ([5]; day 7 of dosing): 0.50 mm; Change in Paw Thickness (mm) Mean ([5]; day 8 of dosing): 0.65 mm; Effects on reduction of paw swelling and clinical score compared to either minocycline or methotrexate [5]: greater; joint inflammation when administered after disease onset [5]: inhibited joint inflammation; anti-bacterial activity compared to minocycline [6]: no anti-bacterial activity; MIC [6]: > 64 µg/mL
COC(=O)c1cc(N(C)C)c2c(c1O)C(=O)C1=C(O)[C@]3(O)C(=O)C(C(N)=O)=C(O)C[C@@H]3C[C@@H]1C2 [Compound W],32%,28%,52%,bio-available,3 h,> 100 µM,> 64 µg/mL,27%,32%,28%,better than minocycline,4 µg/mL,72%,60%,40%,20 mg/kg/day i.p.,0.71 mm,0.41 mm,0.46 mm,0.56 mm,inhibition in vivo at 6 mg/kg [1]: 25%; inhibition in vivo at 25 mg/kg [1]: 60%; Change in Paw Thickness (mm) Mean ([5]; day 5 of dosing): 0.51 mm; Change in Paw Thickness (mm) Mean ([5]; day 6 of dosing): 0.45 mm; Change in Paw Thickness (mm) Mean ([5]; day 7 of dosing): 0.35 mm; Change in Paw Thickness (mm) Mean ([5]; day 8 of dosing): 0.60 mm; Effects on reduction of paw swelling and clinical score compared to either minocycline or methotrexate [5]: greater; joint inflammation when administered after disease onset [5]: inhibited joint inflammation; anti-bacterial activity compared to minocycline [6]: no anti-bacterial activity; MIC [6]: > 64 µg/mL
